Laboratory results taken from patent US6737383B1, “Herbicidal oxadiazolidines” (priority 1999, dated 2004).

How the values were obtained:
[1] = test system: wild oat; assay: Test B pre/postemergence wild oat; assay type: in vivo, Avena fatua
How it was run: (§1)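 Response is a visual 0-to-10 score relative to untreated plants, where 0 means no effect and 10 means complete control, taken twelve to sixteen days after application. Treatments went onto soil at planting and onto foliage of 1- to 4-leaf plants, using a surfactant-containing non-phytotoxic solvent.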

[2] = test system: giant foxtail; assay: Test B pre/postemergence giant foxtail; assay type: in vivo, Setaria faberii
How it was run: as §1

[3] = test system: rice; assay: Test B flood test rice; assay type: in vivo, Oryza sativa; conditions: Pre-emergence
How it was run: (§2)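 Each value is a visual injury score relative to controls, with 10 meaning complete control and 0 no effect. Evaluation took place twelve to sixteen days after the 2-leaf-stage plants were treated and kept in the greenhouse.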

[4] = test system: blackgrass; assay: Test B pre/postemergence blackgrass; assay type: in vivo, Alopecurus myosuroides
How it was run: as §1

[5] = test system: duck salad; assay: Test B flood test duck salad; assay type: in vivo, Heteranthera limosa; conditions: Pre-emergence
How it was run: as §2

[6] = test system: wheat; assay: Test B pre/postemergence wheat; assay type: in vivo, Triticum aestivum
How it was run: as §1

[7] = test system: bamyardgrass; assay: Test B flood test barnyardgrass; assay type: in vivo, Echinochloa crus-galli; conditions: Pre-emergence
How it was run: as §2

[8] = test system: surinam grass; assay: Test B pre/postemergence surinam grass; assay type: in vivo, Brachiaria decumbens
How it was run: as §1

[9] = test system: cocklebur; assay: Test B pre/postemergence cocklebur; assay type: in vivo, Xanthium strumarium
How it was run: as §1

[10] = test system: pigweed; assay: Test B pre/postemergence pigweed; assay type: in vivo, Amaranthus retroflexus
How it was run: as §1

[11] = test system: sugar beet; assay: Test B pre/postemergence sugar beet; assay type: in vivo, Beta vulgaris
How it was run: as §1

[12] = test system: velvetleaf; assay: Test B pre/postemergence velvetleaf; assay type: in vivo, Abutilon theophrasti
How it was run: as §1

[13] = test system: morningglory; assay: Test B pre/postemergence morningglory; assay type: in vivo, Ipomoea hederacea
How it was run: as §1

[14] = test system: bedstraw; assay: Test B pre/postemergence bedstraw; assay type: in vivo, Galium aparine
How it was run: as §1

[15] = test system: crabgrass; assay: Test B pre/postemergence crabgrass; assay type: in vivo, Digitaria sanguinalis
How it was run: as §1

[16] = test system: purple nutsedge; assay: Test B pre/postemergence purple nutsedge; assay type: in vivo, Cyperus rotundus
How it was run: as §1

[17] = Preemergence, Rate 62 g/ha, scale of 0 to 10 where 0 is no effect and 10 is complete control
[18] = Preemergence, Rate 250 g/ha, scale of 0 to 10 where 0 is no effect and 10 is complete control
[19] = Preemergence, Rate 500 g/ha, scale of 0 to 10 where 0 is no effect and 10 is complete control
[20] = Rate 62 g/ha, Postemergence, scale 0 to 10 (0 no effect, 10 complete control)
[21] = Rate 125 g/ha, Postemergence, scale of 0 to 10 where 0 is no effect and 10 is complete control
[22] = Rate 250 g/ha, Postemergence, scale of 0 to 10 where 0 is no effect and 10 is complete control
[23] = Rate 1000 g/ha, scale 0 to 10 (0 no effect, 10 complete control)
[24] = Rate 125 g/ha, flood test species, scale 0 to 10 where 0 is no effect and 10 is complete control
[25] = Rate 250 g/ha, flood-test species, scale 0 to 10, 0 is no effect, 10 is complete control
[26] = Rate 500 g/ha, flood test species, scale 0 to 10 (0 no effect, 10 complete control)
[27] = Rate 500 g/ha, Postemergence, scale 0 to 10, 0 no effect, 10 complete control

With `CCN(C(=O)n1oc(=O)n(C(C)C)c1=O)C1CCCCC1` [Compound 309] the “Wild oats plant response rating” value [1, 17] was 0, the “Wild oats plant response rating (0 to 10 scale)” value ([1]; Preemergence, Rate 125 g/ha) was 0 and the “Wild oats plant response rating” value [1, 18] was 0. The “Wild oats plant response rating” value [1, 19] was 2, the “Wild oats plant response rating” value [1, 20] was 0 and the “Wild oats plant response rating” value [1, 21] was 0. The “Plant response rating, Wild oats” value [1, 22] was 0, the “Giant foxtail plant response rating” value [2, 17] was 5 and the “Giant foxtail plant response rating (0 to 10 scale)” value ([2]; Preemergence, Rate 125 g/ha) was 9. The “Giant foxtail plant response rating” value [2, 18] was 9, the “Giant foxtail plant response rating” value [2, 19] was 9 and the “Giant foxtail plant response rating” value [2, 20] was 0. For the same compound, the “Giant foxtail plant response rating” value [2, 21] was 0, the “Plant response rating, Giant foxtail” value [2, 22] was 0 and the “Rice plant response rating” value [3, 23] was 0. For the same compound, the “Rice plant response rating” value [3, 24] was 0, the “Rice plant response rating” value [3, 25] was 0 and the “Rice plant response rating” value [3, 26] was 0. The “Blackgrass plant response rating” value [4, 17] was 0, the “Blackgrass plant response rating (0 to 10 scale)” value ([4]; Preemergence, Rate 125 g/ha) was 0 and the “Blackgrass plant response rating” value [4, 18] was 2. The “Blackgrass plant response rating” value [4, 19] was 6, the “Blackgrass plant response rating” value [4, 20] was 0 and the “Blackgrass plant response rating” value [4, 21] was 0. For the same compound, the “Plant response rating, Blackgrass” value [4, 22] was 0, the “Blackgrass plant response rating” value [4, 27] was 2 and the “Ducksalad plant response rating” value [5, 23] was 0. For the same compound, the “Ducksalad plant response rating” value [5, 24] was 0, the “Ducksalad plant response rating” value [5, 25] was 0 and the “Ducksalad plant response rating” value [5, 26] was 0. The “Wheat plant response rating” value [6, 17] was 0, the “Wheat plant response rating (0 to 10 scale)” value ([6]; Preemergence, Rate 125 g/ha) was 0 and the “Wheat plant response rating” value [6, 18] was 0. The “Wheat plant response rating” value [6, 19] was 0, the “Wheat plant response rating” value [6, 20] was 0 and the “Wheat plant response rating” value [6, 21] was 0. The “Plant response rating, Wheat” value [6, 22] was 0, the “Barnyardgrass plant response rating” value [7, 23] was 0 and the “Barnyardgrass plant response rating” value [7, 24] was 0. The “Barnyardgrass plant response rating” value [7, 25] was 0, the “Barnyardgrass plant response rating” value [7, 26] was 0 and the “B. signalgrass plant response rating” value [8, 17] was 0. For the same compound, the “B. signalgrass plant response rating (0 to 10 scale, 0 is no effect, 10 is complete control)” value ([8]; Preemergence, Rate 125 g/ha) was 0, the “B. signalgrass plant response rating” value [8, 18] was 0 and the “B. signalgrass plant response rating” value [8, 19] was 2. The “B. signalgrass plant response rating” value [8, 20] was 0, the “B. signalgrass plant response rating” value [8, 21] was 0 and the “Plant response rating, B. signalgrass” value [8, 22] was 0. The “B. signalgrass plant response rating” value [8, 27] was 0, the “Cocklebur plant response rating” value [9, 17] was 0 and the “Cocklebur plant response rating (0 to 10 scale)” value ([9]; Preemergence, Rate 125 g/ha) was 0. For the same compound, the “Cocklebur plant response rating” value [9, 18] was 0, the “Cocklebur plant response rating” value [9, 19] was 0 and the “Cocklebur plant response rating” value [9, 20] was 0. For the same compound, the “Cocklebur plant response rating” value [9, 21] was 0, the “Plant response rating, Cocklebur” value [9, 22] was 0 and the “Cocklebur plant response rating” value [9, 27] was 0. For the same compound, the “Redroot pigweed plant response rating” value [10, 17] was 0, the “Redroot pigweed plant response rating (0 to 10 scale)” value ([10]; Preemergence, Rate 125 g/ha) was 0 and the “Redroot pigweed plant response rating” value [10, 18] was 0. The “Redroot pigweed plant response rating” value [10, 19] was 2, the “Redroot pigweed plant response rating” value [10, 20] was 0 and the “Redroot pigweed plant response rating” value [10, 21] was 0. For the same compound, the “Plant response rating, Redroot pigweed” value [10, 22] was 0, the “Sugarbeets plant response rating” value [11, 17] was 0 and the “Sugarbeets plant response rating (0 to 10 scale)” value ([11]; Preemergence, Rate 125 g/ha) was 0. The “Sugarbeets plant response rating” value [11, 18] was 0, the “Sugarbeets plant response rating” value [11, 19] was 0 and the “Sugarbeets plant response rating” value [11, 20] was 0. The “Sugarbeets plant response rating” value [11, 21] was 0, the “Plant response rating, Sugarbeets” value [11, 22] was 0 and the “Velvetleaf plant response rating” value [12, 17] was 0. For the same compound, the “Velvetleaf plant response rating (0 to 10 scale)” value ([12]; Preemergence, Rate 125 g/ha) was 0, the “Velvetleaf plant response rating” value [12, 18] was 0 and the “Velvetleaf plant response rating” value [12, 19] was 2. The “Velvetleaf plant response rating” value [12, 20] was 0, the “Velvetleaf plant response rating” value [12, 21] was 0 and the “Plant response rating, Velvetleaf” value [12, 22] was 0. The “Morningglory plant response rating” value [13, 17] was 0, the “Morningglory plant response rating (0 to 10 scale)” value ([13]; Preemergence, Rate 125 g/ha) was 0 and the “Morningglory plant response rating” value [13, 18] was 0. For the same compound, the “Morningglory plant response rating” value [13, 19] was 0, the “Morningglory plant response rating” value [13, 20] was 1 and the “Morningglory plant response rating” value [13, 21] was 1. For the same compound, the “Plant response rating, Morningglory” value [13, 22] was 2, the “Bedstraw plant response rating” value [14, 17] was 0 and the “Bedstraw plant response rating (0 to 10 scale)” value ([14]; Preemergence, Rate 125 g/ha) was 0. For the same compound, the “Bedstraw plant response rating” value [14, 18] was 0, the “Bedstraw plant response rating” value [14, 19] was 0 and the “Bedstraw plant response rating” value [14, 20] was 0. For the same compound, the “Bedstraw plant response rating” value [14, 21] was 0, the “Plant response rating, Bedstraw” value [14, 22] was 0 and the “Bedstraw plant response rating” value [14, 27] was 0. The “Crabgrass plant response rating” value [15, 17] was 0, the “Crabgrass plant response rating (0 to 10 scale)” value ([15]; Preemergence, Rate 125 g/ha) was 1 and the “Crabgrass plant response rating” value [15, 18] was 2. The “Crabgrass plant response rating” value [15, 19] was 6, the “Crabgrass plant response rating” value [15, 20] was 0 and the “Crabgrass plant response rating” value [15, 21] was 0. The “Plant response rating, Crabgrass” value [15, 22] was 0, the “Nutsedge plant response rating” value [16, 17] was 0 and the “Nutsedge plant response rating (0 to 10 scale)” value ([16]; Preemergence, Rate 125 g/ha) was 0. The “Nutsedge plant response rating” value [16, 18] was 0, the “Nutsedge plant response rating” value [16, 19] was 0 and the “Nutsedge plant response rating” value [16, 20] was 0. The “Nutsedge plant response rating” value [16, 21] was 0 and the “Plant response rating, Nutsedge” value [16, 22] was 0.
